The record followed here is PubChem BioAssay (NCI).

As usually defined, the GI50 is the concentration giving 50% growth inhibition. One may read the TGI as the concentration giving total growth inhibition. Low readings indicate greater sensitivity of the cells, high ones lower sensitivity of the cells.

Several values for one entry are separate records, joined by “and”; a condition that tells them apart may be missing. Equal entries are not always repeated.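 Step 1: Grow cells in 96-well plates. Step 2: Expose to compound for 48 hours at 5 concentrations. Step 3: Interpolate endpoints linearly; if unreached, use highest concentration. GI50 = concentration required for 50% inhibition of growth. The concentration for full growth arrest is given as TGI.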 Bounds are passed on as bounds.

Holding throughout (test): DTP human tumour cell line panel, 48 h
The subject of experiment [1] is NCI/ADR-RES ovarian.
The test system of experiment [2] is MCF7 breast.
Experiment [3] relates to HS 578T breast.
Experiment [4] has as its system RXF 393 renal.
The test system of experiment [5] is SF-539 CNS.
The test system of experiment [6] is MOLT-4 leukemia.
In experiment [7] the test system is MALME-3M melanoma.
Experiment [8] deals with RPMI-8226 leukemia.
Experiment [9] concerns SNB-19 CNS.
The test system of experiment [10] is NCI-H460 lung.

For the compound `CCN(CC)CCCC(C)Nc1ccnc2cc(Oc3ccccc3)ccc12` (configuration not stated), the GI50 is 14.3 µM and 38.4 µM in [1]; 8.46 µM and 6.01 µM in experiment [2]; 5.5 µM and 16.7 µM in experiment [3]; 1.65 µM and 3.53 µM in [4]; 2.15 µM and 2 µM in experiment [5]; 4.32 µM and 9.05 µM in [6]. Further, the GI50 in experiment [7] was 6.03 µM and 2.29 µM; in [8], 5.02 µM and 5.36 µM; in experiment [9], 15.8 µM and 25.4 µM; in experiment [10], 9.21 µM and 12.6 µM. The concentration for total growth inhibition (TGI) in experiment [1] was 34.1 µM and > 100 µM; in [2] it was 26.5 µM and 19.4 µM; in [3], 24.3 µM and 56.5 µM; in experiment [4], 5.82 µM and 11.2 µM; in [5], 4.35 µM and 4.28 µM; in experiment [6] it was 17.8 µM and 82.8 µM. Also, the concentration for total growth inhibition (TGI) is 12.3 µM and 4.47 µM in experiment [7]; 13.9 µM and 28.2 µM in experiment [8]; 66.3 µM and > 100 µM in experiment [9]; 25.9 µM and 78.7 µM in experiment [10].
As for `C[C@H]1[C@H](C)CC[C@]2(CO)CC[C@]3(C)C(=CC[C@@H]4[C@@]5(C)CCCNC(C)(C)[C@@H]5CC[C@]43C)[C@H]12`, the GI50 was 1.76 µM in [1]; 1.58 µM in experiment [2]; 2.05 µM in experiment [3]; 1.81 µM in [4]; 1.69 µM in experiment [5]; 1.37 µM in experiment [6]. Also, the GI50 was 1.68 µM in experiment [7], 1.85 µM in experiment [8], 1.86 µM in experiment [9] and 1.78 µM in experiment [10]. Further, the concentration for total growth inhibition (TGI) amounted to 3.47 µM in experiment [1]; 3.39 µM in experiment [2]; 4.86 µM in [3]; 3.51 µM in [4]; 3.16 µM in [5]; 3.15 µM in [6]. Moreover, the concentration for total growth inhibition (TGI) was determined as 3.44 µM in [7], 4.14 µM in experiment [8], 3.43 µM in experiment [9] and 3.35 µM in experiment [10].
Take `COc1ccc(C(=O)OC2C(OC3C(O)COC(O[C@H]4C[C@H]5[C@@H]6CC=C7C[C@@H](O)CC[C@]7(C)[C@H]6CC[C@]5(C)[C@H]4[C@H](C)C(=O)CCC(C)C)C3OC(N)=O)OCC(O)C2O)cc1` (some centres not stated): the GI50 in experiment [1] was 13.9 µM; in experiment [2], 0.00855 µM; in experiment [3] it was less than 0.003 µM; in [4], less than 0.003 µM; in experiment [5], less than 0.003 µM; in [6], 0.00564 µM. For the same compound, the GI50 in [7] is 0.182 µM; in experiment [8], less than 0.003 µM; in [9] it was 0.381 µM; in [10], 0.0142 µM. Further, the TGI in experiment [1] was found to be 30 µM; in experiment [2], 0.635 µM; in [3], 0.37 µM; in experiment [4], 0.0509 µM; in [5], 0.0685 µM; in experiment [6], 0.0212 µM. Further, the TGI in [7] amounted to 1.55 µM; in experiment [8], 0.00997 µM; in experiment [9], 3.2 µM; in experiment [10] it was 0.496 µM.
Take `CC1CCC(NC(=O)N(CCCl)N=O)CC1` (configuration not stated): the TGI in experiment [1] is 129 µM; in experiment [2], 110 µM; in experiment [3], 155 µM; in [4], 33.5 µM and 72.9 µM; in experiment [5] it was 43.8 µM and 62.3 µM; in experiment [6] it was 40.2 µM and 66.6 µM. Further, the total growth inhibition concentration (TGI) in experiment [7] is 51.5 µM and 98.1 µM; in [8], 37 µM and 103 µM; in [9], 110 µM; in experiment [10] it was 100 µM. The GI50 in experiment [4] is 16.7 µM; in experiment [5], 18.9 µM; in experiment [7], 26 µM; in experiment [8], 12.5 µM; in experiment [9] it was 55 µM; in [10] it was 28 µM.
Turning to `COc1ccc(-c2cc(=O)[nH]c3c(OC)c4ccccc4c(OC)c23)cc1`, the 50% growth inhibitory concentration (GI50) in experiment [1] is 0.291 µM; in experiment [2], 0.357 µM; in [3], 0.345 µM; in experiment [4], 0.409 µM; in [5] it was 0.393 µM; in experiment [6] it was 0.914 µM. Also, the GI50 in experiment [7] was 2.99 µM; in experiment [8], 0.289 µM; in [9], 2.06 µM; in [10], 0.379 µM. Besides, the concentration for total growth inhibition (TGI) in experiment [2] is more than 100 µM; in experiment [4], more than 19.9 µM; in [6], more than 100 µM; in experiment [7], more than 100 µM; in experiment [8], more than 20.2 µM; in experiment [9] it was more than 100 µM.
As to `CN[C@@H](C)C(=O)N[C@H](C(=O)N1CCC[C@H]1C(=O)Nc1snnc1-c1ccccc1)C1CCCCC1`, the GI50 is 66.1 µM in experiment [1]; 59.1 µM in [2]; 72.8 µM in experiment [3]; 5.18 µM in experiment [4]; 1.08 µM in experiment [5]; 36.6 µM in [6]. In addition, the GI50 in [7] is 11.5 µM; in experiment [8] it was 43.9 µM; in experiment [9], more than 100 µM; in [10], 58.1 µM. Further, the concentration for total growth inhibition (TGI) in experiment [1] was more than 100 µM; in experiment [2] it was more than 100 µM; in experiment [3] it was more than 100 µM; in experiment [4], 40.1 µM; in [5], more than 38.6 µM; in experiment [6], more than 100 µM. Besides, the TGI in [7] was 26.2 µM; in [8], more than 100 µM; in experiment [9], more than 100 µM; in experiment [10], more than 100 µM.
